Test results published in patent EP0089926A2, “Pharmaceutical preparations of tetracycles containing nitrogen, and compounds of this type” (CIBA-GEIGY AG, priority 1982, dated 1983).

Tested on: Mäuse
Experiment: Step-down platform passive avoidance test, direct measurement of improvement of memory performance
Assay type: in vivo
Conditions: male mice, 1 mg/kg i.p. within 10 seconds after foot shock, time on platform 24 hours later versus solvent controls
Excerpt: Zur unmittelbaren […]: • Die Testvorrichtung besteht aus […] normal beleuchteten Box (50 […]äbe (6 mm Durchmesser) in einem Abstand von jeweils 13 mm angeordnet sind. In […] Gitterrostes ist eine hölzerne Plattform (10 mm Höhe, 67 mm Durchmesser) angebracht, welche von […] hoch, 68 mm […]. Zur Durchführung des Trainings werden Gruppen von jeweils 30 männlichen Mäusen (20 - 25 g) verwendet, indem jeweils ein Tier auf die von […] die […] und die Zeitdauer gemessen wird, welche das Tier zum Hinabsteigen und Berühren des Gitterrostes mit allen 4 Pfoten benö[…] von 10 Sekunden nach Verabreichung des Fussschocks werden die Testsubstanzen in Dosen von 0,1 mg/kg, 1 mg/kg und 10 mg/kg (für jede Dosis werden 30 Mäuse verwendet) je nach Löslichkeit als Lösung in physiologischer NaCl-Lösung oder einer 0,5%-igen Lösung von Methylcellulose in Wasser intraperitoneal verabreicht.

| SMILES | Verbesserung der Gedächtnisleistung |
| --- | --- |
| CCC1(CCC(=O)OC)CCN2CCc3c([nH]c4ccccc34)C21 (racemic) [cis-1-Aethyl-2,3,5,6,11,11b-hexahydro-1H-indolizino[8,7-b]indol-1-propionsäuremethylester] | eine Verbesserung der Gedächtnisleistung |
| CCC1(CC(O)C(=O)OC)CCN2CCc3c([nH]c4ccccc34)C21 (racemic) [erythro-cis-a-Hydroxy-1-äthyl-2,3,5,6,11,11b-hexahydro-1H-indolizino[8,7-b]indol-1-propionsäuremethylester] | eine Verbesserung der Gedächtnisleistung |
